Data on three molecules can be found in PMC12002130, “Proteorhodopsin insights into the molecular mechanism of vectorial proton transport” (Science Advances, 2025).

Series [1] concerns the target T1, MAR-Arf1L8K,Q71L chimera (Candidatus Actinomarina minuta, UniProt S5DM51).
T1 construct: MAR fused to bovine Arf1 (L8K, Q71L) as crystallisation spacer on the cytoplasmic side; C-terminal GSGGSHHHHHH tag; expressed in E. coli C41(DE3); retinal site wholly in MAR
Briefly: X-ray crystallography, cryotrapped N state. The class given is binding. The following applies: covalent; photoisomer formed in situ by 532-nm light; pH 7.0; 2.3 A; isomer not assignable from density alone.

Series [2] addresses T1, MAR-Arf1L8K,Q71L chimera. Nature of the series: X-ray crystallography. The series is classed as binding. The following applies: covalent; Schiff base to Lys200 of MAR; dark (ground) state, pH 7.0; all-trans form taken from MAR ground state.
The target of another series is Asp72 (position 72, …). Briefly: UV-vis. The following applies: dark (ground) state, solubilized MAR with all-trans retinal.

T1 sequence (P84080 2-181 L8K/Q71L, one chain of several, further chain): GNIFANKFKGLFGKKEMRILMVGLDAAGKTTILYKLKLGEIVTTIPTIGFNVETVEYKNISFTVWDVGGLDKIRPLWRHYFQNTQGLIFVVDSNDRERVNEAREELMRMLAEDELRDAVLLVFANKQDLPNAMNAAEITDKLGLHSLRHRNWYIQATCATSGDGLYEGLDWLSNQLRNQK

Regarding `CC1=C(/C=C/C(C)=C/C=C/C(C)=C\C=O)C(C)(C)CCC1` [13-cis,15-anti retinal], the “X-ray crystallography, cryotrapped N state” value at MAR-Arf1L8K,Q71L chimera [1] is given as “the retinal conformation in the N state represents the 13-cis,15-anti form”.
As for `CC1=C(/C=C/C(C)=C/C=C/C(C)=C/C=O)C(C)(C)CCC1` [all-trans retinal], the X-ray crystallography entry on MAR-Arf1L8K,Q71L chimera [2] is “The conformation of the MAR molecule is similar to that in the ground state”.

B1: MAR (marine actinobacterial rhodopsin, MacR), a proteorhodopsin (Candidatus Actinomarina minuta) (protein)
chain: MEELTYRLFMVATVGMLAGTVFLLASSREVKPEHRRGVYISALVCGIAWYHYQKMGASWESGSYDTGLRYVDWVLTVPLMFVEVLAVTRKGAAYNEAVRNWGIAATVMIGAGYYGETSAAGSNEYWTGFVIAMATYVWLMRNLQAEGEGLKGDQAVAFENIKNLILVGWIIYPLGYIAPVVGDFDAIREVLYTIADIINKVGLGVLVLQMARVQSGEKVSPGGGSHHHHHH
In general, pKa refers to the negative logarithm of the acid dissociation constant. A higher pKa goes with a group that holds its proton tightly. On to B1, for which the pKa in the series with Asp72 (position 72, …) is around 7.4.
